We go through one compound from article PMC6135396, “Repurposing antimalarial aminoquinolines and related compounds for treatment of retinal neovascularization” (PLoS ONE, 2018).

Each structure is given as a SMILES string.

One series deals with parental CHO-K1 cells. The series is described as follows: Parental cAMP counter assay (cells lacking APJ). The settings on record: Cricetulus griseus. Format: cell-based. As for the experimental part:
To identify small-molecule antagonists of the apelin receptor (APJ) we interrogated the SBP compound file of ~425,000 compounds using CHO-k1-AGTRL1 cells overexpressing human APJ and a competitive immunoassay of intracellular cAMP [59]. The compound file was screened at a concentration of 10 μM. For all 333 plates assayed, the average Z-factor = 0.68 and the average S/B = 8.2, indicating a robust assay performance. […] There were 2550 compounds that met this criterion, representing a hit rate of ~0.6%. […] Included in this hit set was a series of aminoquinolines, exemplified by compound 1 (Fig 1B). […] As part of an initial hit-validation strategy, these compounds and three other commercially available analogs were purchased for further testing. The purity and identify of all compounds were confirmed by NMR and LC-MS, and they were subsequently retested in a battery of cell-based assays of APJ function and counter screens. […] (Fig 1D).
PathHunter™ GPCR Arrestin and cAMP Hunter™ cell lines (DiscoveRx Corp., Fremont, CA) were used to assay G-protein-dependent signaling and β-arrestin recruitment to APJ. CHO-K1 cells stably expressing APJ (CHO-K1-APJ) or AT1 (CHO-K1-AT1) with β-arrestin/β-galactosidase enzyme fragment complementation constructs were maintained in HAM's F-12 medium (Hyclone, Logan, UT) supplemented with 10% FBS, 1X Penicillin-Streptomycin-Glutamine (Invitrogen; Carlsbad, CA), 300 μg/ml hygromycin (EMD Biosciences, San Diego, CA), and 800 μg/ml Geneticin (Cellgro, Manassas, VA). Primary Human Retinal Microvascular Endothelial Cells (HRECs) were purchased from Cell Systems (Kirkland, WA) and maintained in Complete Classic Medium with CultureBoost-R™ (Cell Systems). Parent CHO-K1 cells were obtained from ATCC and maintained in HAM’s F-12 medium supplemented with 10% FBS, and1X Penicillin-Streptomycin-Glutamine (Invitrogen; Carlsbad, CA). All cells were incubated at 37°C (5% CO2, 95% relative humidity) and maintained at less than 70% to 80% confluence (approximately 75,000 cells/cm^2). Cell heterologously expressing APJ or AT1 were not used after 10 passages. HRECs were not used in any experiments after five passages.
All reagents unless otherwise specified are components of the cAMP HitHunter (DiscoveRx) kit. Ligand Buffer + 60 μM Forskolin (Cayman Chemical, Ann Arbor, MI) was made fresh on the day of the experiment and used for the dilution of positive and negative controls as well as all peptides. CHO-K1-APJ cells were dispensed into a 1536-well tissue culture microplate (Corning, Corning, NY) using a Multidrop at a seeding density of 1,000 cells/well and returned to the incubator. The next day, the cell culture media was removed and replaced with 15 μl/well of assay buffer (1X HBSS, 10 mM HEPES) containing anti-cAMP antibody (DiscoveRx). […] Plates were incubated at room temperature in the dark for 3 hours prior to chemiluminescence detection on an EnVision (Perkin Elmer) using a counting time of 1 s/well.

The next series concerns the target T1, APJ (Homo sapiens, UniProt P35414).
T1 sequence (P35414 1-380): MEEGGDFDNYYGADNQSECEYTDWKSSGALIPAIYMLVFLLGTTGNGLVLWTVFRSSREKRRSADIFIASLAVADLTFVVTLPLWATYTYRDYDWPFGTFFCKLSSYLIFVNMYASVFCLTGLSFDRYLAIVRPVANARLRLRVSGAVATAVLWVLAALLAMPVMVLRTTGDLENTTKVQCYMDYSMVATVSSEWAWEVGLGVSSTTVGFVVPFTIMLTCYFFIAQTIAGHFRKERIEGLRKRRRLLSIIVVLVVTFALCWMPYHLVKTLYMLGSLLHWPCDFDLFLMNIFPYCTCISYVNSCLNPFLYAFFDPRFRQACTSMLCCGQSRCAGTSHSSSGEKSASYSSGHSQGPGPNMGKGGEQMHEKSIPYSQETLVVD
As to the kind of experiment: Radioligand competition binding assay, [125I]-Glp65, Nle75, Tyr77-Ap13 on APJ membranes. Also on record: purchased Perkin Elmer. The settings on record: tested as high as 100 μM.

Series [1] in a line: Hepatic microsome stability, mouse. Format: in vitro ADME. The settings on record: liver microsomes, pH 7.4, single phase, read-out: Hepatic microsome stability T1/2. How it is done: Hepatic microsomes stability assays were performed as reported before. […] After preincubation at 37°C for 10 min, enzyme reactions were initiated by adding 120 μL of NADPH-generating system (2 mM NADP^+, 10 mM glucose-6-phosphate, 0.4 U/ml glucose-6-phosphate dehydrogenase, and 5 mM MgCl2) in the presence of 100 mM potassium phosphate buffer (pH 7.4). The final concentration of each model compound used was 1 μM. The microsomal concentrations used were 1.0 mg/mL. Compounds were incubated in microsomes for 0, 5, 15, 30 and 60 min. The reactions were stopped by the addition of ice cold ACN and the reaction mixtures were centrifuged at 10,000g for 10 min before the supernatant was removed for analysis.
Except for the primary assay in the HTS campaign, all experiments were repeated at least three times. Results are expressed as mean ± SEM. The Mann-Whitney test was used to determine statistical significance of the densitometry data of Western blot analysis. Unpaired two-tailed Student’s t-test was performed for the significance of the results of ELISA and in vitro tubule formation assay. ANOVA was used to determine the significance in vivo CNV models using the Tukey post-hoc test for multiple comparisons. […] T1/2 was calculated using the best fit curve resulting from non-linear (human) or linear (mouse and rat) regression analyses using Prism 7.
A general note: Microsomes from liver hold many membrane-bound enzymes, among them those of drug oxidation.

Series [2] in a line: Plasma-protein binding, mouse. Type of series: in vitro ADME.
Series [3] in a line: Plasma-protein binding, human. Format: in vitro ADME.

Broadly, the IC50 is the concentration at which inhibition is half-maximal. `CCN(CC)Cc1cc(Nc2ccnc3cc(Cl)ccc23)ccc1O` [AQ, amodiaquine]: the concentration for half-maximal inhibition (IC50) in the series with parental CHO-K1 cells is > 99 µM. In addition, the “Displacement of [125I]-Glp65, Nle75, Tyr7-Ap13 binding” value on APJ is given as “did not displace”. Also, the half-life at 1 μM in series [1] is 39.8 min. For the same compound, the Plasma-protein binding came out at 81.9 % bound in series [2] (1 μM), 70.8 % bound in series [2] (10 μM), 88.2 % bound in series [3] (1 μM) and 83.8 % bound in series [3] (10 μM).
